From patent US20240116946A1 (Gilead Sciences, Inc., priority 2022, published 2024)
Where two headings read alike, the source gives them in different places.

Tests used:
[1] = molecular target: recombinant SARS-CoV-2 Main protease (Mpro) (Severe acute respiratory syndrome coronavirus 2 (2019-nCoV) (SARS-CoV-2), UniProt P0DTD1); assay: Cov Mpro Biochemical IC50 Assay
SARS-CoV-2-NLuc = assay: microbe, parasite or virus in culture; assay type: cell-based, SARS Coronavirus 2
[2] = recombinant SARS-CoV-2 Mpro, fluorogenic peptide substrate, read-out: MPro IC50
[3] = Severe acute respiratory syndrome coronavirus, 48 h, read-out: MPro EC50
[4] = Severe acute respiratory syndrome coronavirus, 48 h; read-out: MPro EC50
[5] = recombinant SARS-CoV-2 Mpro 7.5 nM, fluorogenic peptide substrate 40 μM, read-out: MPro IC50

SMILES	EC50 (SARS-CoV-2-NLuc; [3])	IC50 [1, 5]	further results
Cc1nocc1-c1cccc(Cl)c1-c1ccc2c(=O)n(-c3cncc4ccccc34)c(=O)[nH]c2c1 [Example 259]	113 nM	–	IC50 [1, 2]: 189 nM
Cc1ccc(-c2ccc3c(=O)n(-c4cncc5ccccc45)c(=O)[nH]c3c2)c(Cl)c1 [Example 192]	3890 nM	–	IC50 [1, 2]: > 50000 nM
COc1ccc(Cl)c(-c2cc3[nH]c(=O)n(-c4cncc5ccccc45)c(=O)c3cc2F)c1 [Example 211]	–	–	IC50 [1, 2]: 55.5 nM; EC50 (SARS-CoV-2-NLuc; [4]): 70.4 nM
COc1cc(-c2cc3[nH]c(=O)n(-c4cncc5sc(C(C)(C)O)c(C)c45)c(=O)c3s2)c(Cl)cc1F [Example 671]	7.44 nM	5.85 nM	–
Cn1ncc2cncc(-n3c(=O)[nH]c4cc(-c5ccccc5Cl)sc4c3=O)c21 [Example 495]	17.2 nM	6.41 nM	–
CN1C(=O)CC(C)(C)c2cc(-c3cccc(Cl)c3-c3ccc4c(=O)n(-c5cncc6ccccc56)c(=O)[nH]c4c3)ccc21 [Example 315]	40.2 nM	–	IC50 [1, 2]: 42 nM
COc1cc(-c2cc3[nH]c(=O)n(-c4cncc5cccc(F)c45)c(=O)c3s2)c(C#N)cc1F [Example 762]	20.3 nM	7.21 nM	–
COc1cc(-c2cc3[nH]c(=O)n(-c4cncc5ccn(C)c45)c(=O)c3s2)c(Cl)cc1F [Example 454, 6-(2-chloro-4-fluoro-5-methoxyphenyl)-3-(1-methyl-1H-pyrrolo[3,2-c]pyridin-7-yl)thieno[3,2-d]pyrimidine-2,4(1H,3H)-dione]	3.89 nM	4.8 nM	–
N#CCCn1c(=O)n(-c2cncc(C#N)c2)c(=O)c2sc(-c3ccccc3Cl)cc21 [Example 1061, 5-(6-(2-chlorophenyl)-1-(2-cyanoethyl)-2,4-dioxo-1,4-dihydrothieno[3,2-d]pyrimidin-3(2H)-yl)nicotinonitrile]	–	5.07 nM	EC50 (SARS-CoV-2-NLuc; [4]): 14.6 nM
N#CCCn1c(=O)n(-c2cncc3ccccc23)c(=O)c2sc(-c3ccccc3Cl)cc21 [Example 818, 3-(6-(2-chlorophenyl)-3-(isoquinolin-4-yl)-2,4-dioxo-3,4-dihydrothieno[3,2-d]pyrimidin-1(2H)-yl)propanenitrile]	6.21 nM	7.61 nM	–
COCCn1cc2cncc(-n3c(=O)[nH]c4cc(-c5cc(OC)c(F)cc5Cl)sc4c3=O)c2n1 [Example 735]	71 nM	6.65 nM	–
N#CCCn1c(=O)n(-c2cncc3ccc(F)cc23)c(=O)c2sc(-c3ccc(F)cc3Cl)cc21 [Example 948]	12.1 nM	12.5 nM	–
COc1ccc(C#N)c(-c2ccc3c(=O)n(-c4cncc5ccccc45)c(=O)[nH]c3c2)c1 (single isomer, unassigned) [Example 570, 2-[3-(4-isoquinolyl)-2,4-dioxo-1H-quinazolin-7-yl]-4-methoxy-benzonitrile]	–	1310 nM	EC50 (SARS-CoV-2-NLuc; read-out: MPro EC50): 700 nM
Cc1c(F)cncc1-n1c(=O)c2sc(-c3ccccc3C#N)cc2n(CCC#N)c1=O [Example 848]	–	34.5 nM	EC50 (SARS-CoV-2-NLuc; [4]): 137 nM
C#Cc1ccccc1-c1ccc2c(=O)n(-c3cncc4ccccc34)c(=O)[nH]c2c1 [Example 28]	536 nM	–	IC50 [1, 2]: 340 nM
COc1cc(-c2cc3c(s2)c(=O)n(-c2cncc(N4CCOCC4)c2)c(=O)n3CCC#N)c(Cl)cc1F [Example 873]	> 1000 nM	263 nM	–
CNC(=O)CCn1c(=O)n(-c2cncc(C3CC3)c2)c(=O)c2sc(-c3ccccc3Cl)cc21 [Example 619, 3-(6-(2-chlorophenyl)-3-(5-cyclopropylpyridin-3-yl)-2,4-dioxo-3,4-dihydrothieno[3,2-d]pyrimidin-1(2H)-yl)-N-methylpropanamide]	–	245 nM	EC50 (SARS-CoV-2-NLuc; [4]): 451 nM
Cc1nc2cncc(-n3c(=O)c4sc(-c5ccc(F)cc5Cl)cc4n(CCC#N)c3=O)c2n1C [Example 853, 3-(6-(2-chloro-4-fluorophenyl)-3-(1,2-dimethyl-1H-imidazo[4,5-c]pyridin-7-yl)-2,4-dioxo-3,4-dihydrothieno[3,2-d]pyrimidin-1(2H)-yl)propanenitrile]	102 nM	26.8 nM	–
COc1cc(-c2cc3c(s2)c(=O)n(-c2cncc4cccc(F)c24)c(=O)n3CCC#N)c(Cl)cc1F [Example 901, 3-(6-(2-chloro-4-fluoro-5-methoxyphenyl)-3-(5-fluoroisoquinolin-4-yl)-2,4-dioxo-3,4-dihydrothieno[3,2-d]pyrimidin-1(2H)-yl)propanenitrile]	5.16 nM	2.53 nM	–
COc1ccc(OC)c(-c2ccc3c(=O)n(-c4cncc5ccccc45)c(=O)[nH]c3c2)c1 [Example 210]	2980 nM	–	IC50 [1, 2]: 2830 nM
COc1cc(-c2cc3[nH]c(=O)n(-c4cncc5c4n(C)c(=O)n5C)c(=O)c3s2)c(Cl)cc1F [Example 750]	36.6 nM	7.76 nM	–
COc1cc(-c2cc3c(s2)c(=O)n(-c2cncc4nc(C(F)(F)F)n(C)c24)c(=O)n3CCC#N)c(Cl)cc1F [Example 856, 3-(6-(2-chloro-4-fluoro-5-methoxyphenyl)-3-(1-methyl-2-(trifluoromethyl)-1H-imidazo[4,5-c]pyridin-7-yl)-2,4-dioxo-3,4-dihydrothieno[3,2-d]pyrimidin-1(2H)-yl)propanenitrile]	46.1 nM	23.2 nM	–

SMILES	EC50 (SARS-CoV-2-NLuc; [3])	IC50 [1, 5]	further results
COc1ccc(Cl)c(-c2cc3[nH]c(=O)n(-c4cncc5c4ccn5C)c(=O)c3s2)c1 [Example 489]	20.4 nM	2.63 nM	–
COc1cc(-c2cc3[nH]c(=O)n(-c4cncc5ccccc45)c(=O)c3s2)c(C#N)cn1 [Example 542]	1200 nM	249 nM	–
COc1ccc(Cl)c(-c2cc3[nH]c(=O)n(-c4cncc5scc(C)c45)c(=O)c3s2)c1 [Example 609, 6-(2-chloro-5-methoxyphenyl)-3-(3-methylthieno[2,3-c]pyridin-4-yl)thieno[3,2-d]pyrimidine-2,4(1H,3H)-dione]	< 3.39 nM	< 2.54 nM	–
COc1ccc(Cl)c(-c2cc3[nH]c(=O)n(-c4cncc5scc(C)c45)c(=O)c3s2)c1 (single isomer, unassigned) [Example 1052, 6-(2-chloro-5-methoxyphenyl)-3-(3-methylthieno[2,3-c]pyridin-4-yl)thieno[3,2-d]pyrimidine-2,4(1H,3H)-dione]	–	3.67 nM	EC50 (SARS-CoV-2-NLuc; read-out: MPro EC50): 2.66 nM
COc1ccc(C#N)c(-c2cc3[nH]c(=O)n(-c4cncc5cnn(C)c45)c(=O)c3s2)c1 [Example 506]	99.5 nM	19.6 nM	–
COc1cc(-c2cc3c(s2)c(=O)n(-c2cncc4nc(-c5ccc(F)cc5)n(C)c24)c(=O)n3CCC#N)c(Cl)cc1F [Example 758]	142 nM	18.9 nM	–
COc1cccc(Cl)c1-c1ccc2c(=O)n(-c3cncc4ccccc34)c(=O)[nH]c2c1 [Example 58]	164 nM	–	IC50 [1, 2]: 158 nM
O=c1[nH]c2cc(-c3ccccc3Cl)sc2c(=O)n1-c1cncc2ccc(N3CC4C(C3)C4(F)F)cc12 (centres unmarked) [Example 231]	37.4 nM	–	IC50 [1, 2]: 22.1 nM
COc1ccc(Cl)c(-c2cc3[nH]c(=O)n(-c4cncc5cnn(CC(F)(F)F)c45)c(=O)c3s2)c1 [Example 500]	42.6 nM	9.12 nM	–
COc1cc(-c2cc3[nH]c(=O)n(-c4cncc5cccc(C)c45)c(=O)c3s2)c(Cl)cc1F (single isomer, unassigned) [Example 995, 6-(2-chloro-4-fluoro-5-methoxyphenyl)-3-(5-methylisoquinolin-4-yl)thieno[3,2-d]pyrimidine-2,4(1H,3H)-dione]	–	3.27 nM	EC50 (SARS-CoV-2-NLuc; read-out: MPro EC50): 1.26 nM
O=c1[nH]c2c(F)c(-c3ccccc3Cl)ccc2c(=O)n1-c1cncc2ccccc12 [Example 82]	2860 nM	–	IC50 [1, 2]: 1370 nM
Cc1cccc(-c2ccccc2)c1-c1ccc2c(=O)n(-c3cncc4ccccc34)c(=O)[nH]c2c1 [Example 97]	266 nM	–	IC50 [1, 2]: 397 nM
Cc1cncc(-n2c(=O)c3sc(-c4ccccc4C#N)cc3n(CCC#N)c2=O)c1 [Example 875]	–	9.81 nM	EC50 (SARS-CoV-2-NLuc; [4]): 32.4 nM
Cn1ncc2cncc(-n3c(=O)[nH]c4cc(-c5c(Cl)cccc5-c5cncc(C#N)c5)sc4c3=O)c21 [Example 677]	–	7.27 nM	EC50 (SARS-CoV-2-NLuc; [4]): 45 nM
COc1cc(-c2cc3[nH]c(=O)n(-c4cncc5c4c(C)nn5C)c(=O)c3s2)c(Cl)cc1F [Example 752]	8.41 nM	6.96 nM	–
COc1cc(-c2cc3c(s2)c(=O)n(-c2cnc(F)c(C)c2)c(=O)n3CCC#N)c(Cl)cc1F [Example 891]	29.6 nM	9.38 nM	–
COc1ccc(Cl)c(-c2cc3[nH]c(=O)n(-c4cncc5cn(CC(F)(F)F)nc45)c(=O)c3s2)c1 [Example 502]	34.8 nM	< 2.54 nM	–
COc1cccc(C#N)c1-c1ccc2c(=O)n(-c3cncc4ccccc34)c(=O)[nH]c2c1 [Example 71]	141 nM	–	IC50 [1, 2]: 76.4 nM
COc1cc(-c2cc3c(s2)c(=O)n(-c2cncc4ccn(C)c(=O)c24)c(=O)n3CC#N)c(Cl)cc1F [Example 696]	29.2 nM	3.15 nM	–
COc1cc(-c2cc3[nH]c(=O)n(-c4cncc5ccccc45)c(=O)c3cc2F)c(Cl)cc1F (single isomer, unassigned) [Example 1006, 7-(2-chloro-4-fluoro-5-methoxy-phenyl)-6-fluoro-3-(4-isoquinolyl)-1H-quinazoline-2,4-dione]	–	–	IC50 ([1]; MPro IC50, recombinant SARS-CoV-2 Mpro 7.5 nM, fluorogenic peptide substrate 40 μM): 23.8 nM; EC50 (SARS-CoV-2-NLuc; read-out: MPro EC50): 9.33 nM
COc1cc(-c2cc3c(s2)c(=O)n(-c2cncc4cccnc24)c(=O)n3CCC#N)c(Cl)cc1F (single isomer, unassigned) [Example 1037, 3-(6-(2-chloro-4-fluoro-5-methoxyphenyl)-3-(1,6-naphthyridin-8-yl)-2,4-dioxo-3,4-dihydrothieno[3,2-d]pyrimidin-1(2H)-yl)propanenitrile]	–	544 nM	EC50 (SARS-CoV-2-NLuc; read-out: MPro EC50): 362 nM
